Data: the NIST ThermoML archive (doi:10.1021/acs.jced.9b00846)

Conditions: Liquid, Vibrating tube method

CCC(C)CC [3-methylpentane]
Conditions | mass density [kg/m3]
283.15 K, 96 kPa | 673.7
283.15 K, 4984 kPa | 678.4
283.15 K, 9983 kPa | 682.9
283.15 K, 14976 kPa | 687.2
283.15 K, 20022 kPa | 691.2
283.15 K, 25054 kPa | 695
283.15 K, 29951 kPa | 698.6
283.15 K, 35044 kPa | 702.1
283.15 K, 40019 kPa | 705.4
283.15 K, 45032 kPa | 708.6
283.15 K, 50012 kPa | 711.7
283.15 K, 54940 kPa | 714.6
283.15 K, 59937 kPa | 717.5
283.15 K, 64969 kPa | 720.3
288.15 K, 123 kPa | 669.3
288.15 K, 4981 kPa | 674.1
288.15 K, 10014 kPa | 678.9
288.15 K, 14991 kPa | 683.2
288.15 K, 19942 kPa | 687.3
288.15 K, 25033 kPa | 691.3
288.15 K, 29989 kPa | 695
288.15 K, 35037 kPa | 698.6
288.15 K, 39987 kPa | 701.9
288.15 K, 45029 kPa | 705.2
288.15 K, 50061 kPa | 708.4
288.15 K, 54941 kPa | 711.3
288.15 K, 59951 kPa | 714.3
288.15 K, 65035 kPa | 717.1
293.15 K, 98 kPa | 664.7
293.15 K, 4913 kPa | 669.7
293.15 K, 9979 kPa | 674.6
293.15 K, 14916 kPa | 679.1
293.15 K, 19985 kPa | 683.5
293.15 K, 24964 kPa | 687.5
293.15 K, 30011 kPa | 691.3
293.15 K, 34951 kPa | 694.9
293.15 K, 40003 kPa | 698.4
293.15 K, 45015 kPa | 701.8
293.15 K, 49957 kPa | 705
293.15 K, 54949 kPa | 708.1
293.15 K, 60008 kPa | 711.1
293.15 K, 65001 kPa | 714
298.15 K, 123 kPa | 660.1
298.15 K, 4936 kPa | 665.3
298.15 K, 9999 kPa | 670.4
298.15 K, 15031 kPa | 675.1
298.15 K, 20036 kPa | 679.5
298.15 K, 25016 kPa | 683.7
298.15 K, 29992 kPa | 687.6
298.15 K, 34973 kPa | 691.3
298.15 K, 40043 kPa | 694.9
298.15 K, 45008 kPa | 698.3
298.15 K, 49987 kPa | 701.6
298.15 K, 54938 kPa | 704.8
298.15 K, 59982 kPa | 707.8
298.15 K, 65001 kPa | 710.8
303.15 K, 106 kPa | 655.4
303.15 K, 4970 kPa | 660.9
303.15 K, 9996 kPa | 666.1
303.15 K, 15043 kPa | 671.1
303.15 K, 20006 kPa | 675.6
303.15 K, 25024 kPa | 679.9
303.15 K, 29956 kPa | 683.9
303.15 K, 34990 kPa | 687.7
303.15 K, 39963 kPa | 691.4
303.15 K, 44991 kPa | 694.9
303.15 K, 49940 kPa | 698.2
303.15 K, 54932 kPa | 701.5
303.15 K, 59961 kPa | 704.6
303.15 K, 65012 kPa | 707.7
308.15 K, 109 kPa | 650.6
308.15 K, 4967 kPa | 656.3
308.15 K, 10001 kPa | 661.8
308.15 K, 14988 kPa | 666.8
308.15 K, 19945 kPa | 671.5
308.15 K, 25037 kPa | 676
308.15 K, 29968 kPa | 680.1
308.15 K, 35020 kPa | 684
308.15 K, 39963 kPa | 687.8
308.15 K, 44985 kPa | 691.4
308.15 K, 49992 kPa | 694.8
308.15 K, 54921 kPa | 698.1
308.15 K, 60008 kPa | 701.4
308.15 K, 64999 kPa | 704.4
313.15 K, 117 kPa | 645.9
313.15 K, 4981 kPa | 651.9
313.15 K, 9993 kPa | 657.5
313.15 K, 15145 kPa | 662.9
313.15 K, 20027 kPa | 667.6
313.15 K, 25088 kPa | 672.2
313.15 K, 30012 kPa | 676.4
313.15 K, 35003 kPa | 680.4
313.15 K, 40042 kPa | 684.3
313.15 K, 45054 kPa | 688
313.15 K, 49996 kPa | 691.5
313.15 K, 54926 kPa | 694.8
313.15 K, 60053 kPa | 698.2
313.15 K, 65063 kPa | 701.3
318.15 K, 107 kPa | 641.1
318.15 K, 4955 kPa | 647.4
318.15 K, 9991 kPa | 653.3
318.15 K, 15039 kPa | 658.8
318.15 K, 20021 kPa | 663.7
318.15 K, 25060 kPa | 668.4
318.15 K, 29991 kPa | 672.8
318.15 K, 34997 kPa | 676.9
318.15 K, 40044 kPa | 680.9
318.15 K, 44936 kPa | 684.6
318.15 K, 49998 kPa | 688.3
318.15 K, 55010 kPa | 691.7
318.15 K, 59996 kPa | 695.1
318.15 K, 65008 kPa | 698.3
323.15 K, 106 kPa | 636.3
323.15 K, 4980 kPa | 642.9
323.15 K, 9966 kPa | 649
323.15 K, 15009 kPa | 654.6
323.15 K, 20016 kPa | 659.8
323.15 K, 24987 kPa | 664.6
323.15 K, 30019 kPa | 669.1
323.15 K, 34996 kPa | 673.3
323.15 K, 40041 kPa | 677.4
323.15 K, 44988 kPa | 681.2
323.15 K, 49949 kPa | 684.9
323.15 K, 55004 kPa | 688.5
323.15 K, 59997 kPa | 691.8
323.15 K, 64995 kPa | 695.1
328.15 K, 4974 kPa | 638.3
328.15 K, 9983 kPa | 644.6
328.15 K, 14977 kPa | 650.4
328.15 K, 20010 kPa | 655.8
328.15 K, 25021 kPa | 660.8
328.15 K, 29956 kPa | 665.4
328.15 K, 34961 kPa | 669.7
328.15 K, 40039 kPa | 673.9
328.15 K, 45005 kPa | 677.9
328.15 K, 50036 kPa | 681.7
328.15 K, 54981 kPa | 685.2
328.15 K, 60023 kPa | 688.7
328.15 K, 65018 kPa | 692
333.15 K, 4969 kPa | 633.7
333.15 K, 9932 kPa | 640.2
333.15 K, 15031 kPa | 646.3
333.15 K, 19959 kPa | 651.8
333.15 K, 25022 kPa | 657
333.15 K, 29983 kPa | 661.7
333.15 K, 34948 kPa | 666.1
333.15 K, 39982 kPa | 670.4
333.15 K, 45015 kPa | 674.5
333.15 K, 49968 kPa | 678.3
333.15 K, 54981 kPa | 682
333.15 K, 59935 kPa | 685.5
333.15 K, 65077 kPa | 689
338.15 K, 5021 kPa | 629
338.15 K, 10019 kPa | 635.9
338.15 K, 15009 kPa | 642.1
338.15 K, 20030 kPa | 647.8
338.15 K, 25053 kPa | 653.1
338.15 K, 29999 kPa | 658
338.15 K, 34951 kPa | 662.6
338.15 K, 39974 kPa | 667
338.15 K, 45053 kPa | 671.2
338.15 K, 49966 kPa | 675.1
338.15 K, 54970 kPa | 678.8
338.15 K, 59984 kPa | 682.5
338.15 K, 65015 kPa | 685.9
343.15 K, 5000 kPa | 624.2
343.15 K, 10002 kPa | 631.4
343.15 K, 15025 kPa | 637.8
343.15 K, 20016 kPa | 643.7
343.15 K, 24973 kPa | 649.1
343.15 K, 29947 kPa | 654.2
343.15 K, 34977 kPa | 658.9
343.15 K, 39962 kPa | 663.4
343.15 K, 44924 kPa | 667.6
343.15 K, 50034 kPa | 671.8
343.15 K, 54984 kPa | 675.6
343.15 K, 59973 kPa | 679.3
343.15 K, 65018 kPa | 682.9
348.15 K, 4999 kPa | 619.4
348.15 K, 10005 kPa | 626.9
348.15 K, 15001 kPa | 633.6
348.15 K, 19997 kPa | 639.7
348.15 K, 24983 kPa | 645.3
348.15 K, 30044 kPa | 650.6
348.15 K, 34962 kPa | 655.3
348.15 K, 40008 kPa | 660
348.15 K, 44956 kPa | 664.3
348.15 K, 50006 kPa | 668.4
348.15 K, 54987 kPa | 672.4
348.15 K, 59977 kPa | 676.1
348.15 K, 65005 kPa | 679.8
353.15 K, 4969 kPa | 614.4
353.15 K, 9927 kPa | 622.1
353.15 K, 14990 kPa | 629.2
353.15 K, 20018 kPa | 635.5
353.15 K, 25032 kPa | 641.3
353.15 K, 29979 kPa | 646.6
353.15 K, 34952 kPa | 651.6
353.15 K, 39962 kPa | 656.4
353.15 K, 44947 kPa | 660.8
353.15 K, 49917 kPa | 665
353.15 K, 55013 kPa | 669.1
353.15 K, 59927 kPa | 672.9
353.15 K, 65026 kPa | 676.6
358.15 K, 4945 kPa | 609.3
358.15 K, 9952 kPa | 617.5
358.15 K, 15000 kPa | 624.7
358.15 K, 20004 kPa | 631.3
358.15 K, 25020 kPa | 637.3
358.15 K, 29990 kPa | 642.7
358.15 K, 34993 kPa | 647.8
358.15 K, 40000 kPa | 652.7
358.15 K, 44971 kPa | 657.2
358.15 K, 49932 kPa | 661.5
358.15 K, 54965 kPa | 665.6
358.15 K, 59980 kPa | 669.6
358.15 K, 65056 kPa | 673.4
363.15 K, 5004 kPa | 604.2
363.15 K, 9965 kPa | 612.8
363.15 K, 15052 kPa | 620.5
363.15 K, 19925 kPa | 627.1
363.15 K, 25013 kPa | 633.3
363.15 K, 29929 kPa | 638.9
363.15 K, 35008 kPa | 644.2
363.15 K, 39979 kPa | 649.1
363.15 K, 45062 kPa | 653.9
363.15 K, 50011 kPa | 658.2
363.15 K, 54995 kPa | 662.4
363.15 K, 60039 kPa | 666.4
363.15 K, 65041 kPa | 670.2
